The source of these data is PubChem BioAssay (NCI).

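Grown in 96-well plates, cells were treated for 48 hours with each compound at five concentrations. Insufficient inhibition: endpoint recorded as highest concentration tested. Abbreviation: GI50, concentration required for 50% inhibition of growth. Definition used: TGI = concentration required for complete inhibition of growth.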

Among the test systems are U251 CNS; HCT-15 colon; UACC-257 melanoma; HCC-2998 colon; SK-MEL-28 melanoma; SNB-75 CNS; HCT-116 colon; COLO 205 colon; NCI-H522 lung; BT-549 breast.
What all share (test): inhibition of tumour cell growth, NCI panel, 48 h

Turning to `CCOc1ccccc1N=Nc1ccc2oc(=O)c(C(C)=O)cc2c1`, the TGI was greater than 100 µM in the assay on U251 CNS; greater than 100 µM with HCT-15 colon; greater than 100 µM with UACC-257 melanoma; greater than 100 µM in the assay on HCC-2998 colon; greater than 100 µM in the assay on SK-MEL-28 melanoma; 43.2 µM in the assay on SNB-75 CNS. The TGI in the assay with HCT-116 colon, in the assay with COLO 205 colon and in the assay on NCI-H522 lung was greater than 100 µM throughout.

Regarding `CC1=CC2C(C=C1)S(=O)(=O)N1CC21c1ccccc1` (centres undefined), the TGI in the assay with U251 CNS, in the assay with HCT-15 colon, with UACC-257 melanoma, in the assay with HCC-2998 colon, with SK-MEL-28 melanoma and in the assay with SNB-75 CNS was greater than 100 µM in each case. Also, the TGI in the assay with HCT-116 colon, with COLO 205 colon and with NCI-H522 lung was greater than 100 µM throughout.

Take `O=C1NC2NC3NC(=O)NC3NC2N1` (centres undefined): the TGI with U251 CNS, with UACC-257 melanoma, in the assay on BT-549 breast, with SK-MEL-28 melanoma, with SNB-75 CNS and in the assay on HCT-116 colon was greater than 100 µM in each case. Besides, the TGI with COLO 205 colon and with NCI-H522 lung was greater than 100 µM each time.

For the compound `CC1=C(c2nc3ccccc3s2)C(=O)OC1(C)C`, the TGI in the assay on U251 CNS, in the assay with HCT-15 colon, in the assay on UACC-257 melanoma, in the assay with HCC-2998 colon, in the assay with SK-MEL-28 melanoma and in the assay with SNB-75 CNS was greater than 100 µM each time. The TGI with HCT-116 colon, with COLO 205 colon and with NCI-H522 lung was greater than 100 µM each time.

Turning to `O=C/C(=C1/C=Cc2cc([N+](=O)[O-])ccc2S1)c1ccccc1`, the TGI in the assay with U251 CNS, in the assay on HCT-15 colon, in the assay on UACC-257 melanoma, with HCC-2998 colon, with SK-MEL-28 melanoma and with SNB-75 CNS was greater than 100 µM each time. The TGI in the assay with HCT-116 colon, with COLO 205 colon and in the assay with NCI-H522 lung was greater than 100 µM throughout.

For `CCOC1=C2N=C(C(CC)c3ccccc3F)N=C2C(=O)c2ccccc21` (centres undefined), the TGI with U251 CNS was greater than 100 µM; in the assay on HCT-15 colon, greater than 100 µM; in the assay with UACC-257 melanoma, greater than 100 µM; in the assay with HCC-2998 colon it was greater than 100 µM; in the assay on SK-MEL-28 melanoma, greater than 100 µM; with SNB-75 CNS it was 47.8 µM. The TGI with HCT-116 colon, with COLO 205 colon and with NCI-H522 lung was greater than 100 µM in each case.

For `Cc1cc2ncn(-c3nc4ccccc4nc3C(C#N)S(C)(=O)=O)c2cc1C` (centres undefined), the TGI with U251 CNS, in the assay with HCT-15 colon, with UACC-257 melanoma, with HCC-2998 colon, in the assay on SK-MEL-28 melanoma and in the assay on SNB-75 CNS was greater than 100 µM in each case. Moreover, the TGI in the assay on HCT-116 colon, in the assay with COLO 205 colon and with NCI-H522 lung was greater than 100 µM each time.

As to `Brc1ccc(C2C3CSc4ccccc4C3=NN2c2ccccc2)cc1` (centres undefined), the TGI in the assay with U251 CNS was greater than 100 µM; in the assay on HCT-15 colon, greater than 100 µM; in the assay on UACC-257 melanoma, 95.6 µM; with BT-549 breast, greater than 100 µM; in the assay with SK-MEL-28 melanoma, greater than 100 µM; in the assay on SNB-75 CNS, greater than 100 µM. For the same compound, the TGI in the assay with HCT-116 colon and in the assay on COLO 205 colon was greater than 100 µM in each case.

`N#CC(NNC(=O)Cc1ccccc1)c1cccc(O)c1` (centres undefined): the TGI in the assay with U251 CNS, in the assay with HCT-15 colon, in the assay with UACC-257 melanoma, with SK-MEL-28 melanoma, in the assay on SNB-75 CNS and in the assay on HCT-116 colon was greater than 100 µM throughout. Besides, the TGI with COLO 205 colon and with NCI-H522 lung was greater than 100 µM in each case.

On to `COc1ccc2[nH]c3c(c2c1)[C@H](c1ccccc1)C[C@@H]1C(=O)N(c2ccccc2)C(=O)[C@H]31`, for which the TGI was 38.3 µM in the assay with U251 CNS; greater than 100 µM with HCT-15 colon; greater than 100 µM in the assay with UACC-257 melanoma; greater than 100 µM with HCC-2998 colon; greater than 100 µM in the assay with SK-MEL-28 melanoma; 40.1 µM in the assay with SNB-75 CNS. Further, the TGI with HCT-116 colon is 19 µM; in the assay with COLO 205 colon, greater than 100 µM; in the assay with NCI-H522 lung, greater than 100 µM.

Regarding `CCOC(=O)c1c2ccc(/C=C/c3ccccn3)ccc-2c(C(=O)OCC)c1N`, the TGI was greater than 100 µM in the assay on HCT-15 colon; greater than 100 µM in the assay on UACC-257 melanoma; greater than 100 µM in the assay with HCC-2998 colon; 1.49 µM with SK-MEL-28 melanoma; greater than 100 µM with SNB-75 CNS; greater than 100 µM in the assay with COLO 205 colon. In addition, the TGI with NCI-H522 lung is greater than 100 µM.

Turning to `O=C1[C@@H]2C(c3ccc(Br)cc3)=NO[C@@H]2C(=O)N1c1ccc(Cc2ccc(N3C(=O)[C@H]4C(c5ccc(Br)cc5)=NO[C@H]4C3=O)cc2)cc1`, the TGI was greater than 3.48 µM with U251 CNS; greater than 40 µM with HCT-15 colon; greater than 40 µM in the assay with UACC-257 melanoma; greater than 3.48 µM in the assay on HCC-2998 colon; greater than 40 µM in the assay with SK-MEL-28 melanoma; greater than 40 µM with SNB-75 CNS. For the same compound, the TGI in the assay on HCT-116 colon, in the assay on COLO 205 colon and in the assay with NCI-H522 lung was greater than 40 µM in each case. Besides, the GI50 in the assay on UACC-257 melanoma, with SK-MEL-28 melanoma, with SNB-75 CNS, with COLO 205 colon and in the assay on NCI-H522 lung was greater than 40 µM in each case.

As to `O=Cc1c[nH]c2c(=O)[nH]cnc12`, the TGI in the assay on HCT-15 colon, with UACC-257 melanoma, in the assay with HCC-2998 colon, with SK-MEL-28 melanoma, with SNB-75 CNS and in the assay with HCT-116 colon was greater than 100 µM throughout. In addition, the TGI in the assay with COLO 205 colon and in the assay with NCI-H522 lung was greater than 100 µM each time.

Regarding `COc1ccc(N2C(=O)c3c(c4[nH]c5ccccc5c4c4ccc(C(C)(C)C)cc34)C2=O)cc1`, the TGI was 42.7 µM in the assay with U251 CNS; greater than 100 µM with HCT-15 colon; greater than 100 µM in the assay on UACC-257 melanoma; greater than 100 µM in the assay on HCC-2998 colon; greater than 100 µM in the assay on SK-MEL-28 melanoma; 35.4 µM with SNB-75 CNS. Besides, the TGI with HCT-116 colon, in the assay with COLO 205 colon and with NCI-H522 lung was greater than 100 µM each time.

As to `O=C(Cc1ccccc1)NN1C(=O)C(Cl)C1c1ccccc1Cl` (centres undefined), the TGI in the assay on U251 CNS, with HCT-15 colon, in the assay with UACC-257 melanoma, with HCC-2998 colon, in the assay on SK-MEL-28 melanoma and in the assay on SNB-75 CNS was greater than 100 µM throughout. Further, the TGI in the assay on HCT-116 colon was greater than 100 µM; in the assay on COLO 205 colon, greater than 100 µM; with NCI-H522 lung, 28 µM.
